# Test system: Sitophilus oryzae
# Test: Antifeedant activity against Sitophilus oryzae (rice weevil) assessed as mean diet consumed after 72 hr by flour disk bioassay based feeding choice assay (reference value: 7.61 +/- 1.59 mg/day)
# Assay type: functional
row,SMILES,Activity
1,C=C(C)[C@H]1CC[C@]2(C)C[C@H](O)[C@]3(C)CCC=C(CC[C@@H]12)C(=O)O3,1.03 mg/day
2,C=C(C)[C@H]1CC[C@]2(C)C[C@H](OC(C)=O)[C@]3(C)CCC=C(CC[C@@H]12)C(=O)O3,6.61 mg/day
3,C=C(C)[C@H]1CC[C@]2(C)C/C=C(\C)C[C@@H]3C=C(CC[C@@H]12)C(=O)O3,3.36 mg/day
4,C=C(C)[C@H]1CC[C@]2(C)C/C=C(\C)CC/C=C(\C(=O)O)CC[C@@H]12,1.17 mg/day
5,C=C(C)[C@H]1CC[C@]2(C)C/C=C(\C)CC/C=C(\C(=O)OC)CC[C@@H]12,6.74 mg/day
